Test results published in publication PMC10062711 (Journal of Molecular Structure, 2023).
Converted amounts (≈) assume the structure as drawn.

How the values were obtained:
K. pneumonia (MTCC2272) = assay: In vitro antibacterial MIC, microbroth dilution; assay type: cell-based, K. pneumoniae; conditions: for MIC K. pneumoniae: 24 h incubation; for inhibitory activity against K. pneumoniae compared to standard drug: versus Streptomycin
E. coli (MTCC-443) = assay: In vitro antibacterial MIC, microbroth dilution; assay type: cell-based; conditions: for MIC E. coli: 24 h incubation; for MIC: Escherichia coli, MTCC443, 24 h, read-out: MIC E. coli
P. aeruginosa (MTCC-741) = assay: In vitro antibacterial MIC, microbroth dilution; assay type: cell-based; conditions: for MIC P. aeruginosa: 24 h incubation; for MIC: Pseudomonas aeruginosa, MTCC741, 24 h, read-out: MIC P. aeruginosa
A. niger = assay: In vitro antifungal MIC; assay type: cell-based; conditions: for MIC A. niger: 72-96 h incubation; for MIC: Aspergillus niger, read-out: MIC A. niger
A. flavus = assay: In vitro antifungal MIC; assay type: cell-based; conditions: for MIC A .flavus: 72-96 h incubation; for MIC: Aspergillus flavus, read-out: MIC A .flavus
B. subtilis (MTCC-121) = assay: In vitro antibacterial MIC, microbroth dilution; assay type: cell-based; conditions: for MIC B. subtilius: 24 h incubation; for potency against B. substilius compared to the standard drug: versus Streptomycin
S. aureus (MTCC-96) = assay: In vitro antibacterial MIC, microbroth dilution; assay type: cell-based; conditions: for MIC S. aureus: 24 h incubation
[1] = tested on: Mycobacterium tuberculosis H37Rv; assay: Antitubercular activity, Resazurin Assay method; assay type: cell-based; conditions: for % Inhibition: primary screening (6.5 mg/mL); for antitubercular activity compared to PZA: M. tuberculosis H37Rv, versus PZA
Rhizopus sp = assay: In vitro antifungal MIC; assay type: cell-based; conditions: for MIC Rhizopus sp: 72-96 h incubation; for MIC: Rhizopus, read-out: MIC Rhizopus sp
[2] = tested on: peripheral blood mononuclear cells (PBMC); conditions: MTT assay
C. albicans = assay: In vitro antifungal MIC; assay type: cell-based; conditions: for MIC C. albicans: 72-96 h incubation; for MIC: Candida albicans, read-out: MIC C. albicans
[3] = Mycobacterium tuberculosis, H37RV

Row | Compound | MIC K. pneumoniae (K. pneumonia (MTCC2272)) | MIC E. coli (E. coli (MTCC-443)) | MIC P. aeruginosa (P. aeruginosa (MTCC-741)) | MIC A. niger (A. niger) | MIC A .flavus (A. flavus) | MIC B. subtilius (B. subtilis (MTCC-121)) | MIC S. aureus (S. aureus (MTCC-96)) | % Inhibition ([1]; M. tb H37Rv) | MIC Rhizopus sp (Rhizopus sp) | MIC C. albicans (C. albicans) | MIC [1, 3] | inhibition at 6500 µg/mL [1, 3] | also measured
1 | 3,5-Dimethyl-2,6-bis(p-chlorophenyl)−4H-pyran-4-one O-((1-phenyl-1H-1,2,3-triazol-4-yl) methyl)oxime [Compound 27] | 50 µg/mL | 6.3 µg/mL | 25 µg/mL | 25 µg/mL | 25 µg/mL | 50 µg/mL | 25 µg/mL | 75% | – | – | – | – | inhibitory activity against E. coli compared to Streptomycin (E. coli (MTCC-443); versus Streptomycin): two-fold; MIC ([1]; M. tb H37Rv, neutral pH): 6.25 µg/mL
2 | 3,5-Dimethyl-2,6-bis(p-methoxyphenyl)pyran-4-one N-isonicotinoylhydrazone [Compound 12] | 25 µg/mL | 50 µg/mL | 100 µg/mL | 25 µg/mL | 12.5 µg/mL | 25 µg/mL | 50 µg/mL | 70% | 50 µg/mL | 25 µg/mL | – | – | IC50 (cytotoxicity) [2]: 609.1 µg/mL; antitubercular activity compared to PZA [1]: twice
3 | 3,5-Dimethyl-2,6-bis(p-methoxyphenyl)−4H-pyran-4-one O-((1-phenyl-1H-1,2,3-triazol-4-yl)methyl)oxime [Compound 30] | 25 µg/mL | – | – | 12.5 µg/mL | – | 25 µg/mL | – | 80% | – | 25 µg/mL | – | – | –
4 | 3,5-Dimethyl-2,6-bis(p-methoxyphenyl)−4H-pyran-4-one O-((3-(4-chlorophenyl) isoxazol-5-yl)methyl)oxime [Compound 36] | 25 µg/mL | 25 µg/mL | 100 µg/mL | 6.3 µg/mL | 6.3 µg/mL | 50 µg/mL | 50 µg/mL | 75% | 50 µg/mL | 25 µg/mL | – | – | MIC ([1]; M. tb H37Rv, neutral pH): 6.25 µg/mL
5 | 3,5-Dimethyl-2,6-bis(p-methylphenyl)pyran-4-one N-isonicotinoylhydrazone [Compound 11] | 25 µg/mL | 12.5 µg/mL | 25 µg/mL | 50 µg/mL | 25 µg/mL | 25 µg/mL | 12.5 µg/mL | 76% | 50 µg/mL | 50 µg/mL | – | – | IC50 (cytotoxicity) [2]: 587.6 µg/mL; antitubercular activity compared to PZA [1]: twice
6 | 3,5-Dimethyl-2,6-bis(p-methylphenyl)−4H-pyran-4-one O-((3-(4-chlorophenyl) isoxazol-5-yl)methyl) oxime [Compound 35] | 25 µg/mL | 25 µg/mL | 25 µg/mL | 25 µg/mL | 25 µg/mL | 12.5 µg/mL | 12.5 µg/mL | 82% | 50 µg/mL | 25 µg/mL | – | – | potency against B. substilius compared to the standard drug (B. subtilis (MTCC-121)): two-fold; MIC ([1]; M. tb H37Rv, neutral pH): 6.25 µg/mL
7 | 3-Ethyl-2,6-diphenylpyran-4-one N-isonicotinoylhydrazone [Compound 8] | 12.5 µg/mL | 6.3 µg/mL | 25 µg/mL | 25 µg/mL | 25 µg/mL | 6.3 µg/mL | 50 µg/mL | 70% | 12.5 µg/mL | 25 µg/mL | – | – | IC50 (cytotoxicity) [2]: 486.2 µg/mL; antitubercular activity compared to PZA [1]: twice
8 | 3-Ethyl-2,6-diphenyltetrahydro-4H-pyran-4-one O-ethynyl oxime [Compound 20] | 25 µg/mL | 12.5 µg/mL | 25 µg/mL | 25 µg/mL | 100 µg/mL | 25 µg/mL | 12.5 µg/mL | – | 50 µg/mL | 100 µg/mL | – | – | activity against S. aureus compared to the standard drug (S. aureus (MTCC-96); versus Streptomycin): fourfold
9 | 3-Methyl-2,6-diphenylpyran-4-one N-isonicotinoylhydrazone [Compound 7] | 12.5 µg/mL | 6.3 µg/mL | 12.5 µg/mL | 50 µg/mL | 12.5 µg/mL | 12.5 µg/mL | 25 µg/mL | 73% | 25 µg/mL | 25 µg/mL | – | – | MIC ([1]; M. tb H37Rv, neutral pH): 6.25 µg/mL
10 | 3-Methyl-2,6-diphenyltetrahydro-4H-pyran-4-one O-ethynyl oxime [Compound 19] | 25 µg/mL | 50 µg/mL | 100 µg/mL | 50 µg/mL | 100 µg/mL | 25 µg/mL | 50 µg/mL | – | 100 µg/mL | 100 µg/mL | – | – | –
11 | CC1C(=NOCc2cn(-c3ccccc3)nn2)CC(c2ccccc2)OC1c1ccccc1 (stereo not shown) [Compound 25, 3-Methyl-2,6-diphenyltetrahydro-4H-pyran-4-one O-((1-phenyl-1H-1,2,3-triazol-4-yl)methyl)oxime] | – | – | – | – | – | – | – | – | – | – | 6.25 µg/mL (≈ 14.3 µM) | 75% | inhibitory activity against K. pneumoniae compared to standard drug (K. pneumonia (MTCC2272)): four-fold; MIC (Rhizopus sp): 25 µg/mL (≈ 57 µM); MIC (E. coli (MTCC-443)): 25 µg/mL (≈ 57 µM); MIC (P. aeruginosa (MTCC-741)): 12.5 µg/mL (≈ 28.5 µM); MIC (A. niger): 50 µg/mL (≈ 114 µM); MIC (A. flavus): 12.5 µg/mL (≈ 28.5 µM); MIC (C. albicans): 25 µg/mL (≈ 57 µM)
12 | CCC1C(=NOCc2cn(-c3ccccc3)nn2)CC(c2ccccc2)OC1c1ccccc1 (stereo not shown) [Compound 26, 3-Ethyl-2,6-diphenyltetrahydro-4H-pyran-4-one O-((1-phenyl-1H-1,2,3-triazol-4-yl)methyl) oxime] | – | – | – | – | – | – | – | – | – | – | 6.25 µg/mL (≈ 13.8 µM) | 70% | inhibitory activity against K. pneumoniae compared to standard drug (K. pneumonia (MTCC2272)): four-fold; MIC (Rhizopus sp): 12.5 µg/mL (≈ 27.6 µM); MIC (E. coli (MTCC-443)): 12.5 µg/mL (≈ 27.6 µM); MIC (P. aeruginosa (MTCC-741)): 25 µg/mL (≈ 55.2 µM); MIC (A. niger): 25 µg/mL (≈ 55.2 µM); MIC (A. flavus): 6.3 µg/mL (≈ 13.9 µM); MIC (C. albicans): 6.3 µg/mL (≈ 13.9 µM)
13 | CC1C(=NOCc2cc(-c3ccc(Cl)cc3)no2)CC(c2ccccc2)OC1c1ccccc1 (stereo not shown) [Compound 31, 3-Methyl-2,6-diphenyltetrahydro-4H-pyran-4-one-O-((3-(4-chlorophenyl)isoxazol-5-yl)methyl) oxime] | – | – | – | – | – | 12.5 µg/mL (≈ 26.4 µM) | – | – | – | – | 6.25 µg/mL (≈ 13.2 µM) | 90% | MIC (Rhizopus sp): 25 µg/mL (≈ 52.9 µM); MIC (E. coli (MTCC-443)): 12.5 µg/mL (≈ 26.4 µM); MIC (P. aeruginosa (MTCC-741)): 12.5 µg/mL (≈ 26.4 µM); MIC (A. niger): 50 µg/mL (≈ 106 µM); MIC (A. flavus): 12.5 µg/mL (≈ 26.4 µM); potency against B. substilius compared to the standard drug (B. subtilis (MTCC-121)): two-fold; MIC (C. albicans): 25 µg/mL (≈ 52.9 µM)
14 | CCC1C(=NOCc2cc(-c3ccc(Cl)cc3)no2)CC(c2ccccc2)OC1c1ccccc1 (stereo not shown) [Compound 32, 3-Ethyl-2,6-diphenyltetrahydro-4H-pyran-4-one O-((3-(4-chlorophenyl)isoxazol-5-yl)methyl) oxime] | – | – | – | – | – | 12.5 µg/mL (≈ 25.7 µM) | – | – | – | – | 6.25 µg/mL (≈ 12.8 µM) | 91% | MIC (Rhizopus sp): 12.5 µg/mL (≈ 25.7 µM); MIC (E. coli (MTCC-443)): 25 µg/mL (≈ 51.3 µM); MIC (P. aeruginosa (MTCC-741)): 25 µg/mL (≈ 51.3 µM); MIC (A. niger): 25 µg/mL (≈ 51.3 µM); MIC (A. flavus): 6.3 µg/mL (≈ 12.9 µM); potency against B. substilius compared to the standard drug (B. subtilis (MTCC-121)): two-fold; MIC (C. albicans): 25 µg/mL (≈ 51.3 µM)
15 | CC[C@@H](CO)NCCN[C@@H](CC)CO [EMB, Ethambutol, reference compound] | – | – | – | – | – | – | – | – | – | – | 1.56 µg/mL (≈ 7.64 µM) | > 95% | –
16 | NNC(=O)c1ccncc1 [INH, isoniazid, reference compound] | – | – | – | – | – | – | – | – | – | – | 0.1 µg/mL (≈ 0.729 µM) | > 95% | –
17 | NC(=O)c1cnccn1 [PZA, pyrazinamide, reference compound] | – | – | – | – | – | – | – | – | – | – | 6.25 µg/mL (≈ 50.8 µM) | > 90% | –
